“Also recorded” adds a separate entry of the source.
Tests used:
[1] = system: mice given lethal TBI and T cell depleted BM (allo-HCT); assay: Thymic reconstitution after T cell-depleted allogeneic HCT; assay type: in vivo; settings: BALB.B recipients, 900 cGy, TC-G 1008 20 mg/mouse/day day 0-8, 10 and 12, day 14
[2] = system: Male C57BL/6 mice aged 2 mo, 12 mo or 19 mo; assay: Thymus cellularity in mice aged 2, 12 or 19 months; assay type: in vivo, mouse; settings: TC-G 1008 20 mg/kg/day for 5 days, day 7, versus untreated controls
Method: FIG. 14. Male C57BL/6 mice aged 2 mo, 12 mo or 19 mo were given the GPR39 agonist TC-G 1008 (20 mg/kg/day) for 5 days. Thymus cellularity was measured at day 7.

Bmp4 in exECs = assay: Bmp4 expression by qPCR in exECs; assay type: cell-based, mouse; settings: TC-G 1008 25 μM, 24 hours, compared with ZnSO4 100 μM
GPR39 = target: T1, GPR39 (Mus musculus, UniProt Q5U431); assay: Ca2+ live imaging of ECs with Fluo3-AM; assay type: cell-based; settings: 20 mins post stimulation, AUC
T1 construct: endogenous in cells; host or cells: thymic endothelial cells (ECs / exECs)
T1 sequence (Q5U431 1-456): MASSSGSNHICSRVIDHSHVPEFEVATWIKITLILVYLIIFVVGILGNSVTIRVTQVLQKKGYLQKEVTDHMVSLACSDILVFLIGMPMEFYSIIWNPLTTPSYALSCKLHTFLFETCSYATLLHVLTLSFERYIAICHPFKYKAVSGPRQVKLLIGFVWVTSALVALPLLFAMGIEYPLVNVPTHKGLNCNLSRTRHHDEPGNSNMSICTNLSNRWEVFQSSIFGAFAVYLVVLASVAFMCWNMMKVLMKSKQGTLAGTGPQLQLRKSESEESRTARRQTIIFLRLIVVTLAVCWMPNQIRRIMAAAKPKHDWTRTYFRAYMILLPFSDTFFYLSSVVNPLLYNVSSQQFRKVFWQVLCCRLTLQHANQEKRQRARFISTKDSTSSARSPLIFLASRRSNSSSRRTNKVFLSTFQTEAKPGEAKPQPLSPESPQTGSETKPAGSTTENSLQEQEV
From the text: FIGS. 20A-20D. […] (20D) GPR39 cell surface levels in thymocytes and TECs at d0. Graphs represent mean+/−SEM.

[3] = system: C57BL/6 mice given sublethal TBI; assay: Thymic regeneration after sublethal total body irradiation (SL-TBI, 550 cGy); assay type: in vivo, mouse; settings: TC-G 1008 20 mg/mouse/day by guided feeding day 0 to day 10, 550 cGy TBI, day 10
From the text: FIGS. 4A-4G. […] (4A, 4B) 6-8 week-old female C57BL/6 mice were fed a normal or ZD diet for 21 days at which point mice were given a sublethal dose of total body irradiation (TBI, 550 cGy). (4A) Total thymic cellularity at days 7 and 14 after TBI (n=10/treatment/timepoint across two independent experiments). (4B) Total number of CD45-EpCAM^+MHCII^+UEA1^loLy51^hi (cTECs) and CD45^− EpCAM^+MHCII^+UEA1^hi Ly51^lo (mTECs) at days 7 and 14 after TBI (n=10/treatment/timepoint across two independent experiments). (4C) 6-12 week-old female BALB.B mice were fed with normal or ZD diet for 21 days, at which point mice were given a lethal dose of TBI (900cGy) and 10×10^6 T cell-depleted bone marrow (BM) cells from 6-8 week-old C57BL/6. One cohort also received 2×10^6 T cells to induce graft versus host disease (GVHD); thymic cellularity was quantified on day 14 after allogeneic hematopoietic stem cell transplant (allo-HCT, n=5-6/group). (4D) 6-8 week-old female C57BL/6 mice were fed with normal or ZD diet for 21 days at which point mice were given 550 cGy TBI and total thymus cellularity quantified on day 14. […] (4E) Total thymic cellularity. (4F) Total number of cTECs and mTECs. (4G) Total number of Ki-67+ thymic endothelial cells (TECs). […]

## CNc1nc(NCc2ccc(NS(C)(=O)=O)cc2Cl)cc(-c2ccccn2)n1 [TC-G 1008, N-[3-chloro-4-[[[2-(methylamino)-6-pyridin-2-ylpyrimidin-4-yl]amino]methyl]phenyl]methanesulfonamide]
[1]
  thymic function: significantly improved thymic function
[2]
  thymus cellularity: significantly improved thymus cellularity
Bmp4 in exECs
  Bmp4 expression: induced expression of Bmp4, greater than Zn alone; also recorded: induces expression of BMP4
GPR39
  Ca2+ influx: incudes Ca2+ influx
[3]
  thymic function (thymus cellularity): significantly improved thymic function

— patent US20230263800A1, “COMPOSITIONS AND METHODS TO PROMOTE THYMIC FUNCTION” (Fred Hutchinson Cancer Center, priority 2020, published 2023)
